Measurements reported in patent US12037324B2, “Biarylmethyl heterocycles” (Université de Montréal, priority 2016, dated 2024).

Assays:
AGTR1 [1] = molecular target: T1, AGTR1 (Homo sapiens, UniProt P30556); assay: DiscoveRx β-arrestin2 recruitment assay (enzyme complementation, Pathunter CHO-K1 AGTR1 β-arrestin cell line); type: cell-based; conditions: DiscoveRx β-arrestin2 recruitment; for DiscoveRx β-arrestin2 Ymax (%): maximal response
T1 construct: host or cells: Pathunter CHO-K1 AGTR1 β-arrestin cell line (CHO-K1)
T1 sequence (P30556 1-359): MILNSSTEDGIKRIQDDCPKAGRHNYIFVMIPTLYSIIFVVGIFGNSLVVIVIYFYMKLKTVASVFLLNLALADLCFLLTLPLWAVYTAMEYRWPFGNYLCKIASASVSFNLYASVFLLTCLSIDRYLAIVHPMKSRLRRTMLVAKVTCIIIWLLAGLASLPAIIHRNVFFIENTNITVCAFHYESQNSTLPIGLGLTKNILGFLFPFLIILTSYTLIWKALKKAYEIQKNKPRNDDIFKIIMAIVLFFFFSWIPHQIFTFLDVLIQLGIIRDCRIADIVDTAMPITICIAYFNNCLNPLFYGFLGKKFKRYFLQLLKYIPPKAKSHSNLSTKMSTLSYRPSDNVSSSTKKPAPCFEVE
How it was run: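 CHO-K1 cells expressing AGTR1 with β-arrestin2 enzyme-complementation reporter, plated 14-16 h ahead in 1% serum medium, then exposed to compounds for 90 min at 37° C. Chemiluminescence read after 1 h detection. EC50 (agonist) or IC50 (antagonist) from 4-parameter logistic fit; activity as percentage of All maximal effect.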

AGTR1 [2] = molecular target: T1, AGTR1; assay: DiscoveRx IP1 accumulation assay (HTRF), agonist mode, Pathunter CHO-K1 AGTR1 β-arrestin cell line; type: cell-based; conditions: for EC50: read-out: IP-1 EC50
How it was run: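 Agonist mode in CHO-K1 AGTR1 β-arrestin cells plated 14-16 h before; compounds at varying concentrations for 90 min at 37° C, IP1 accumulation read by HTRF (D2-conjugate and anti-IP1 cryptate, 20 min room temperature). EC50 from 4-parameter logistic fit; activity given as percentage of maximal AII effect.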

hAT1R [3] = molecular target: T2, hAT1R (Homo sapiens, UniProt P30556); assay: BRET β-arrestin2 biosensor assay, higher receptor expression (hAT1R 5 ng/well), HEK293 cells; type: cell-based; conditions: for EC50: High AT1R Expression
T2 sequence (P30556 1-359): T1 sequence (P30556 1-359)

hAT1R [4] = molecular target: T2, hAT1R; assay: cell-based
hAT1R [5] = molecular target: T2, hAT1R; assay: cell-based; conditions: agonist mode; for EC50: read-out: BRET P63 EC50
[6] = section of the 42nd table ending at r951, example numbering restarts after the DiscoveRx section, read-out: β-arrestin2 EC50
[7] = Low AT1R Expression, read-out: BRET β-Arrestin2 Low AT1R Expression EC50

Row | SMILES | EC50 (AGTR1 [1]) [µM] | DiscoveRx β-arrestin2 Ymax (%) (AGTR1 [1]) | IP-1 Ymax (%) (AGTR1 [2]) | EC50 (AGTR1 [2]) [µM] | BRET β-Arrestin2 High AT1R Expression Ymax (%) (hAT1R [3]) | EC50 (hAT1R [3]) [µM] | EC50 (hAT1R [4]; [6]) [µM] | BRET P63 Ymax (hAT1R [5]) [%] | EC50 (hAT1R [5]) [µM] | BRET β-Arrestin2 Low AT1R Expression Ymax (%) (hAT1R [4]; Low AT1R Expression) | EC50 (hAT1R [4]; [7]) [µM]
1 | CCc1nc2c(C)cc(C)nc2n1Cc1ccc(-c2cc(Oc3ccccc3F)ccc2-c2nnn[nH]2)cc1 [Example 205, 2-Ethyl-3-((5′-(2-fluorophenoxy)-2′-(1H-tetrazol-5-yl)-[1,1′-biphenyl]-4-yl)methyl)-5,7-dimethyl-3H-imidazo[4,5-b]pyridine] | 0.0318 | 42.2 | 16.7 | 0.0702 | 92.1 | 0.0048 | 0.0213 | 20.2 | 0.0184 | – | –
2 | CCc1nc2c(C)cc(C)nc2n1Cc1ccc(-c2cc(Oc3cncnc3)ccc2-c2nnn[nH]2)cc1 [Example 258] | 0.0231 | 35.2 | 15.1 | 0.0428 | 75.7 | 0.0415 | 0.0819 | 17.5 | 0.14 | – | –
3 | CCc1nc2c(C)cc(C)nc2n1Cc1ccc(-c2cc(Oc3cccnc3)ccc2-c2nnn[nH]2)cc1 [Example 257] | 0.009 | 34.9 | 10.7 | 0.0283 | 87.3 | 0.01 | 0.0291 | 10.8 | 0.0237 | – | –
4 | CCc1nc2c(C)cc(C)nc2n1Cc1ccc(-c2cc(-c3cc(C)cc(C)c3)ccc2C(=O)O)cc1 [Example 181, 4″-((2-ethyl-5,7-dimethyl-3H-imidazo[4,5-b]pyridin-3-yl)methyl)-3,5-dimethyl-[1,1′:3′,1″-terphenyl]-4′-carboxylic acid] | 0.048 | 88.8 | 6.1 | 0.0784 | 94.1 | 0.0048 | 0.0157 | 16.1 | 0.0475 | – | –
5 | CCc1nc2c(C)cc(C)nc2n1Cc1ccc(-c2cc(-c3ccc(CO)cc3)ccc2C(=O)O)cc1 [Example 183] | 0.0662 | 36.2 | 14.1 | 0.2 | 90.0 | 0.0629 | 0.138 | 13.2 | 0.179 | – | –
6 | CCc1nc2c(C)cc(C)nc2n1Cc1ccc(-c2cc(Oc3ccccc3)ccc2-c2nnn[nH]2)cc1 [Example 204, 2-Ethyl-5,7-dimethyl-3-((5′-phenoxy-2′-(1H-tetrazol-5-yl)-[1, 1′-biphenyl]-4-yl)methyl)-3H-imidazo[4,5-b]pyridine] | 0.0264 | 42.4 | 14.4 | 0.0668 | 85.9 | 0.0036 | 0.0098 | 9.4 | 0.0107 | – | –
7 | CCCCC1=NC2(CCCC2)C(=O)N1Cc1ccc(-c2cc(-c3ccc(C)cc3)ccc2-c2nn[nH]n2)cc1 [Example 122, 2-butyl-3-((4″-methyl-6′-(2H-tetrazol-5-yl)-[1,1′:3′,1″-terphenyl]-4-yl)methyl)-1,3-diazaspiro[4.4]non-1-en-4-one] | 0.0161 | 33.8 | 5.5 | 0.0354 | 94.3 | 0.0175 | – | – | > 10 | 31.6 | 0.0308
8 | CCc1nc2c(C)cc(C)nc2n1Cc1ccc(-c2cc(-c3cn(CC)nn3)ccc2-c2nnn[nH]2)cc1 [Example 234, 2-Ethyl-3-((5′-(1-ethyl-1H-1,2,3-triazol-4-yl)-2′-(1H-tetrazol-5-yl)-[1,1′-biphenyl]-4-yl)methyl)-5,7-dimethyl-3H-imidazo[4,5-b]pyridine] | 0.0092 | 59.9 | 18.8 | 0.0193 | 93.3 | 0.0034 | 0.0122 | 37.1 | 0.0282 | – | –
9 | CCc1nc2c(C)cc(C)nc2n1Cc1ccc(-c2cc(-n3cc(C(C)C)nn3)ccc2-c2nnn[nH]2)cc1 [Example 227] | 0.032 | 51.6 | 9.8 | 0.268 | 87.8 | 0.0074 | 0.0314 | 19.9 | 0.0304 | – | –
10 | CCc1nc2c(C)cc(C)nc2n1Cc1ccc(-c2cc(-c3cccc(C)c3)ccc2-c2nnn[nH]2)nc1 [Example 175, 2-ethyl-5,7-dimethyl-3-((6-(3′-methyl-4-(1H-tetrazol-5-yl)biphenyl-3-yl)pyridin-3-yl)methyl)-3H-imidazo[4,5-b]pyridine] | 0.006 | 37.0 | 24.1 | 0.0128 | 93.0 | 0.0052 | 0.0107 | 12.4 | 0.0211 | – | –
11 | CCc1nc2c(C)cc(C)nc2n1Cc1ccc(-c2cc(-c3ccsn3)ccc2-c2nn[nH]n2)cc1 [Example 57] | 0.0166 | 26.3 | – | > 100 | 66.3 | 0.0152 | – | 5.0 | 0.0143 | 8.9 | 0.0199
12 | CCc1nc2c(C)cc(C)nc2n1Cc1ccc(-c2cc(-c3ccccc3)ccc2C(=O)O)cn1 [Example 196, 3-(6-((2-ethyl-5,7-dimethyl-3H-imidazo[4,5-b]pyridin-3-yl)methyl)pyridin-3-yl)-[1,1′-biphenyl]-4-carboxylic acid] | 3.02 | 50.4 | 12.1 | 0.869 | 83.3 | 0.618 | 1.7 | 7.6 | 1.1 | – | –
13 | CCc1nc2c(C)cc(C)nc2n1Cc1ccc(-c2cc(-c3ccccc3)ccc2-c2nn[nH]n2)cc1 [Example 4] | 0.0075 | 48.9 | 9.8 | 0.019 | 95.4 | 0.0038 | – | 13.0 | 0.0048 | 69.3 | 0.0082
14 | CCc1nc2c(C)cc(C)nc2n1Cc1ccc(-c2cc(Oc3ncccc3Cl)ccc2-c2nn[nH]n2)cc1 [Example 255] | 0.123 | 26.3 | 7.8 | 0.471 | 80.2 | 0.0243 | 0.0878 | 6.0 | 0.0225 | – | –
